Measured values from the CheMixHub viscosity set.

Experiment: xn = mol fraction of the nth substance listed

C1COCCO1 + CO
Settings | viscosity [mPa·s]
293.15 K, 101 kPa, x2 = 0.2465 | 0.9992
293.15 K, 101 kPa, x2 = 0.3957 | 0.8686
293.15 K, 101 kPa, x2 = 0.5458 | 0.7639
293.15 K, 101 kPa, x2 = 0.6558 | 0.6972
293.15 K, 101 kPa, x2 = 0.7331 | 0.6579
293.15 K, 101 kPa, x2 = 0.8062 | 0.6268
293.15 K, 101 kPa, x2 = 0.8648 | 0.6069
293.15 K, 101 kPa, x2 = 0.9198 | 0.5935
293.15 K, 101 kPa, x2 = 0.9635 | 0.5877
293.15 K, 101.3 kPa, x2 = 0.1975 | 1.045
293.15 K, 101.3 kPa, x2 = 0.3447 | 0.9049
293.15 K, 101.3 kPa, x2 = 0.4743 | 0.8065
293.15 K, 101.3 kPa, x2 = 0.5836 | 0.7327
293.15 K, 101.3 kPa, x2 = 0.6782 | 0.6805
293.15 K, 101.3 kPa, x2 = 0.7588 | 0.6441
293.15 K, 101.3 kPa, x2 = 0.8312 | 0.6135
293.15 K, 101.3 kPa, x2 = 0.8936 | 0.5998
293.15 K, 101.3 kPa, x2 = 0.9503 | 0.59
298.15 K, 101 kPa, x1 = 0.3 | 0.6148
298.15 K, 101 kPa, x2 = 0.8474 | 0.5684
298.15 K, 101 kPa, x2 = 0.9275 | 0.5488
298.15 K, 101 kPa, x2 = 0.9636 | 0.5589
298.15 K, 101.3 kPa, x2 = 0.1975 | 0.9612
298.15 K, 101.3 kPa, x2 = 0.3447 | 0.8454
298.15 K, 101.3 kPa, x2 = 0.4743 | 0.7506
298.15 K, 101.3 kPa, x2 = 0.5836 | 0.6825
298.15 K, 101.3 kPa, x2 = 0.6782 | 0.6352
298.15 K, 101.3 kPa, x2 = 0.7588 | 0.6047
298.15 K, 101.3 kPa, x2 = 0.8312 | 0.578
298.15 K, 101.3 kPa, x2 = 0.9503 | 0.5443
303.15 K, 101 kPa, x2 = 0.2218 | 0.8759
303.15 K, 101 kPa, x2 = 0.4075 | 0.7425
303.15 K, 101 kPa, x2 = 0.5478 | 0.6573
303.15 K, 101 kPa, x2 = 0.6544 | 0.6056
303.15 K, 101 kPa, x2 = 0.7387 | 0.5694
303.15 K, 101 kPa, x2 = 0.8089 | 0.5455
303.15 K, 101 kPa, x2 = 0.8164 | 0.5434
303.15 K, 101 kPa, x2 = 0.8671 | 0.5288
303.15 K, 101 kPa, x2 = 0.9617 | 0.5105
303.15 K, 101.3 kPa, x2 = 0.1975 | 0.8931
303.15 K, 101.3 kPa, x2 = 0.3447 | 0.778
303.15 K, 101.3 kPa, x2 = 0.4743 | 0.6981
303.15 K, 101.3 kPa, x2 = 0.5836 | 0.6349
303.15 K, 101.3 kPa, x2 = 0.6782 | 0.5919
303.15 K, 101.3 kPa, x2 = 0.7588 | 0.5568
303.15 K, 101.3 kPa, x2 = 0.8312 | 0.5316
303.15 K, 101.3 kPa, x2 = 0.8936 | 0.5157
303.15 K, 101.3 kPa, x2 = 0.9503 | 0.5063
303.15 K, 101.33 kPa, x2 = 0.225 | 0.877
303.15 K, 101.33 kPa, x2 = 0.4115 | 0.733
303.15 K, 101.33 kPa, x2 = 0.662 | 0.603
303.15 K, 101.33 kPa, x2 = 0.923 | 0.52
308.15 K, 101.3 kPa, x2 = 0.1975 | 0.831
308.15 K, 101.3 kPa, x2 = 0.3447 | 0.7262
308.15 K, 101.3 kPa, x2 = 0.4743 | 0.6503
308.15 K, 101.3 kPa, x2 = 0.5836 | 0.593
308.15 K, 101.3 kPa, x2 = 0.6782 | 0.5507
308.15 K, 101.3 kPa, x2 = 0.7588 | 0.52
308.15 K, 101.3 kPa, x2 = 0.8312 | 0.497
308.15 K, 101.3 kPa, x2 = 0.9503 | 0.4725
313.15 K, 101 kPa, x2 = 0.2218 | 0.7572
313.15 K, 101 kPa, x2 = 0.2465 | 0.7401
313.15 K, 101 kPa, x2 = 0.4075 | 0.6436
313.15 K, 101 kPa, x2 = 0.5458 | 0.5763
313.15 K, 101 kPa, x2 = 0.6544 | 0.5294
313.15 K, 101 kPa, x2 = 0.7387 | 0.499
313.15 K, 101 kPa, x2 = 0.8089 | 0.4782
313.15 K, 101 kPa, x2 = 0.8671 | 0.4627
313.15 K, 101 kPa, x2 = 0.9635 | 0.446
323.15 K, 101 kPa, x2 = 0.2465 | 0.6508
323.15 K, 101 kPa, x2 = 0.3957 | 0.5742
323.15 K, 101 kPa, x2 = 0.5458 | 0.5093
323.15 K, 101 kPa, x2 = 0.6558 | 0.4701
323.15 K, 101 kPa, x2 = 0.7331 | 0.4449
323.15 K, 101 kPa, x2 = 0.8062 | 0.4249
323.15 K, 101 kPa, x2 = 0.8648 | 0.4107
323.15 K, 101 kPa, x2 = 0.9198 | 0.4003
323.15 K, 101 kPa, x2 = 0.9635 | 0.3949
